Experimental data from US4753965A, “Method of treating multiple sclerosis with chalcone derivatives” (Merrell Dow Pharmaceuticals, Inc., priority 1987, dated 1988).
Converted amounts (≈) assume the structure as drawn. Values belong to the compound of their own block, whether it stands above or below them.

What was measured:
HeLa cells = test: Growth inhibition of HeLa cells; assay type: cell-based; conditions: Homo sapiens, 72 hours
Experimental: The compounds of structure 1 inhibit the polymerization of tubulin, and thus the formation of microtubules, that ubiquitous substance of eukaryotic cells which serves a variety of functions, most importantly, to separate the duplicated sets of chromosomes during cell mitosis.
For growth inhibition studies, exponentially growing HeLa cells
were incubated at a density of 1 × 10^5 cells/35 mm dish with
number of dilutions of the test compound in the medium. The
plates were incubated at 37° C. in a CO2 incubation. At the
of 72 hours the cells were collected by trypinization and
counted and the IC50 (.upsilon.g/ml) was determined.

[1] = tested on: Experimental Allergic Encephalomyelitis (EAE); test: Experimental Allergic Encephalomyelitis (EAE) in rats; assay type: in vivo, Lewis strain rats
Experimental: Effect of α-methyl-4-dimethylamino-2',5'-dimethoxychalcone on Experimental Allergic Encephalomyelitis (EAE) in Rats
EAE was induced in rats as described by Rosenthal and Nagra, Proc. Soc.
Lewis strain rats ranging in weight
from 100-200 g were sensitized with encephalitogenic emulsion consisting
of homogenized spinal cord in complete Freund's adjuvant. The test
compound and hydrocortisone (HC) were administered in
polyvinylpyrrolidone vehicle. The test compound was administered i.p.
once daily from day 1 through day 10. HC was administered s.c. once
every other day from day 1 through day 10. The incidence of paralysis
was recorded and mean paralysis time was calculated.

[2] = 6.25 mg/kg i.p. once daily day 1 through day 10
[3] = 12.5 mg/kg i.p. once daily day 1 through day 10
[4] = 25.0 mg/kg i.p. once daily day 1 through day 10

IC50 (HeLa cells): 0.015 µg/mL (≈ 0.0461 µM)
Structure (SMILES): COc1ccc(OC)c(C(=O)C(C)=Cc2ccc(N(C)C)cc2)c1 [COMPOUND, 1-(2,5-dimethoxyphenyl)-3-[4-(dimethylamino)phenyl]-2-methyl-2-propen-1-one]
PARALYSIS TIME (Mean ± S.E.) [1, 2]: 9.7 ± 0.36 days | PERCENT INCIDENCE OF PARALYSIS [1, 2]: 90% | number paralyzed/total number of animals [1, 2]: 9/10 | PARALYSIS TIME (Mean ± S.E.) [1, 3]: 9.4 ± 0.26 days | PERCENT INCIDENCE OF PARALYSIS [1, 3]: 80% | number paralyzed/total number of animals [1, 3]: 8/10 | PARALYSIS TIME (Mean ± S.E.) [1, 4]: 10.8 ± 0.54 days | PERCENT INCIDENCE OF PARALYSIS [1, 4]: 40% | number paralyzed/total number of animals [1, 4]: 7/18

Structure (SMILES): C[C@]12CCC(=O)C=C1CC[C@@H]1[C@@H]2[C@@H](O)C[C@@]2(C)[C@H]1CC[C@]2(O)C(=O)CO [HYDROCORTISONE, hydrocortisone, reference compound]
number paralyzed/total number of animals ([1]; 25.0 mg/kg s.c. once every other day day 1 through day 10): 14/19
